Measured values reported in patent US20250326753A1, “DUAL CXCR4-BTK INHIBITORS” (X4 Pharmaceuticals, Inc., priority 2022, published 2025).

Legend:
CXCR4 [1] = molecular target: T1, CXCR4 (Homo sapiens, UniProt P61073); assay: Intracellular CXCL-12-induced calcium mobilization assay (FLIPR), U87.CXCR4 cells; format: cell-based; parameters: expressed in transfected cells; host or cells: U87 (U87.CXCR4); conditions: CXCL-12 25-50 ng/ml, read-out: IC50 CXCL-12 Ca2+ flux U87.CXCR4+
Protocol: Intracellular calcium mobilization induced by chemokines or chemokine-derived peptides were evaluated using a calcium responsive fluorescent probe and a FLIPR system. The CXCR-4 transfected U87 cell line (U87.CXCR4) cells were seeded in gelatine-coated black-wall 96-well plates at 20,000 cells per well and incubated for 12 hours. Cells were then loaded with the fluorescent calcium probe Fluo-2 acetoxymethyl at 4 μM final concentration in assay buffer (Hanks' balanced salt solution with 20 mM HEPES buffer and 0.2% bovine serum albumin, pH 7.4) for 45 min at 37° C. The intracellular calcium mobilization induced by the CXCL-12 (25-50 ng/ml) was then measured at 37° C. by monitoring the fluorescence as a function of time in all the wells simultaneously using a fluorometric imaging plate reader (FLIPR Tetra, Molecular Devices).

CXCR4 [2] = molecular target: T1, CXCR4; assay: Chemokine (CXCL12-AF647) binding inhibition assay, Jurkat cells expressing CXCR4; conditions: CXCL12-AF647 25 ng/ml, read-out: IC50 CXCL-12 binding Jurkat
Protocol: Jurkat cells expressing CXCR4 were washed once with assay buffer (Hanks' balanced salt solution with 20 mM HEPES buffer and 0.2% bovine serum albumin, pH 7.4) and then incubated for 15 min at room temperature with the test compounds diluted in assay buffer at dose-dependent concentrations. Subsequently, CXCL12-AF647 (25 ng/ml) was added to the compound-incubated cells. The cells were incubated for 30 min at room temperature. Thereafter, the cells were washed twice in assay buffer, fixed in 1% paraformaldehyde in PBS, and analyzed on the FL4 channel of a FACSCalibur flow cytometer equipped with a 635-nm red diode laser (Becton Dickinson, San Jose, CA, USA).
The percentages of inhibition of CXCL12-AF647 binding were calculated according to the formula: [1−((MFI−MFINC)/(MFIPC−MFINC))]×100 where MFI is the mean fluorescence intensity of the cells incubated with CXCL 12-AF647 in the presence of the inhibitor, MFINC is the mean fluorescence intensity measured in the negative control (i.e., autofluorescence of unlabeled cells), and MFIPC is the mean fluorescence intensity of the positive control (i.e., cells exposed to CXCL12-AF647 alone).

[3] = molecular target: T2, BTK (Bruton tyrosine kinase) (Homo sapiens, UniProt Q06187); assay: BTK screening assay (33PanQinase Activity Assay, radiometric); format: biochemical; conditions: Inhibition of BTK, radiometric 33PanQinase Activity Assay, 3 μM ATP, 10 concentrations in singlicate, top 10 μM; read-out: 33PanQinase ® Radiometric IC50
T2 construct: GST or His (the text leaves open which); purchased Reaction Biology Europe GmbH Lot 012,11; host or cells: Sf9 insect cells or E. coli (not resolved)
Protocol: Inhibition of BTK activity was evaluated using a radiometric protein kinase assay (33PanQinase® Activity Assay) to measure the activity of BTK (Bruton tyrosine kinase).
Kinase assays were performed in 96-well ScintiPlates™ from Perkin Elmer (Boston, MA, USA) in a 50 μL reaction volume. The reaction cocktail was pipetted in four steps in the following order: 10 μL of non-radioactive ATP solution (in H2O); 25 μL of assay buffer/[γ-^33P]-ATP mixture; 5 μL of compound test sample in 10% DMSO; 10 μL of enzyme/substrate mixture.
BTK kinase was expressed in Sf9 insect cells or in E. coli as recombinant GST-fusion proteins or His-tagged proteins, either as full-length or enzymatically active fragments from human cDNAs, and purified by either GSH-affinity chromatography or immobilized metal. Purity was examined by SDS-PAGE/Coomassie staining, and identity confirmed by mass spectroscopy.
The reaction cocktails were incubated at 30° C. for 60 minutes. The reaction was stopped with 50 μL of 2% (v/v) H3PO4, plates were aspirated and washed two times with 200 μL 0.9% (w/v) NaCl. Incorporation of ^33Pi (counting of “cpm”) was determined with a microplate scintillation counter (Microbeta, Wallac).
The median value of the counts in wells containing assay buffer without enzyme, and without test compound was defined as “low control.” This value reflects unspecific binding of radioactivity to the plate in the absence of a protein kinase but in the presence of the substrate. The median value of the counts in wells containing assay buffer without test compound was defined as the “high control,” i.e. full activity in the absence of any inhibitor. The difference between high and low control was taken as 100% activity. Residual activity (in %) was calculated using the following formula: Res. Activity (%)=100×[(cpm of compound-low control)/(high control-low control)].
The fitting method used was a least-squares fit.

T2 sequence (Q06187 whole entry): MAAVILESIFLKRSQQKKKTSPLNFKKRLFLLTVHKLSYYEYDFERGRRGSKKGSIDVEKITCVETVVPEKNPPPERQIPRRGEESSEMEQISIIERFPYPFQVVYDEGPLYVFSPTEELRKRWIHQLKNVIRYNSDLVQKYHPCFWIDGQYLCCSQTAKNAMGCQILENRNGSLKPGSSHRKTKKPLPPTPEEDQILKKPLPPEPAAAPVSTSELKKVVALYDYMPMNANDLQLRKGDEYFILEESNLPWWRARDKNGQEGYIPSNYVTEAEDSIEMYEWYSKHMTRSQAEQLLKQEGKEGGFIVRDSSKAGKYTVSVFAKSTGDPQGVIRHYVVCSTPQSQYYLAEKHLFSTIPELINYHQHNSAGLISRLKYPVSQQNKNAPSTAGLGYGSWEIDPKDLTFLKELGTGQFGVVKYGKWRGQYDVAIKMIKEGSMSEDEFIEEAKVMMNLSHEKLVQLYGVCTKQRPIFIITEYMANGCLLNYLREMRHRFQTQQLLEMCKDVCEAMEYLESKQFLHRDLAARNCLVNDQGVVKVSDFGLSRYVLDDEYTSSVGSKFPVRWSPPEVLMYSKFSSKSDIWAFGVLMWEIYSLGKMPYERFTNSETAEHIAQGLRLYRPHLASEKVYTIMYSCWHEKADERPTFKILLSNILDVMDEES
T1 sequence (P61073 whole entry): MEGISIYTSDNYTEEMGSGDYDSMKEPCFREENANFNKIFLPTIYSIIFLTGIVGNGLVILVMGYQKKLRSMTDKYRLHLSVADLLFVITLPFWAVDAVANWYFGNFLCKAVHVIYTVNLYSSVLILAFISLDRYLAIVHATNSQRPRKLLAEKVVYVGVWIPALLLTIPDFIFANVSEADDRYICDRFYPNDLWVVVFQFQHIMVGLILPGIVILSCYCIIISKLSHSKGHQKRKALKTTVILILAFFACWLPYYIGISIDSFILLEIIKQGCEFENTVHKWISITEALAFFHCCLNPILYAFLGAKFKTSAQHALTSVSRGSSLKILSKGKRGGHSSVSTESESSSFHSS

Row | SMILES | IC50 (CXCR4 [1]) [µM] | IC50 (CXCR4 [2]) [µM] | IC50 [3] [µM]
1 | Cc1cc(-c2ncnc3[nH]c(C(=O)NCCCN4[C@@H](c5ncccc5C)CCC[C@H]4c4ncccc4C)cc23)ccc1CNC(=O)c1ccc(C(F)(F)F)cc1 [Compound I-40] | > 2.5 | 0.001 to 0.1 | 0.001 to 0.1
2 | Cc1cc(-c2ccnc(Nc3cnn(CCN4CCCCC4c4ncccc4C)c3)n2)ccc1CNC(=O)N1CC(OC(C)C)C1 (stereo not drawn) [Compound I-66] | > 2.5 | > 2.5 | 0.001 to 0.1
3 | Cc1cc(-c2ccnc(Nc3cnn(CCN4[C@@H](c5ncccc5C)CCC[C@H]4c4ncccc4C)c3)n2)ccc1CNC(=O)N1CC(OC(C)(C)C)C1 [Compound I-42] | 0.1 to 1 | 0.001 to 0.1 | 0.001 to 0.1
4 | Cc1cc(-c2ncnc3[nH]c(S(=O)(=O)NCCCN4[C@@H](c5ncccc5C)CCC[C@H]4c4ncccc4C)cc23)ccc1CNC(=O)c1ccc(C(C)(C)C)cc1 [Compound I-27] | > 2.5 | 0.1 to 1 | 0.1 to 1
5 | Cc1cccnc1[C@H]1CCC[C@@H](c2ncccc2C)N1CCCNC(=O)[C@@H]1CC[C@@H](Nc2ncnc3[nH]cc(C(=O)c4ccc(Oc5ccccc5)cc4Cl)c23)CO1 [Compound I-20] | > 2.5 | 0.1 to 1 | 0.001 to 0.1
6 | Cc1cccnc1[C@H]1CCC[C@@H](c2ncccc2C)N1CCCN1CCN(C(=O)c2ccc(-c3cc4c(-c5cccc(NC(=O)c6ccccc6)c5C)ncnc4[nH]3)cc2)CC1 [Compound I-30] | 0.001 to 0.1 | 0.001 to 0.1 | 0.1 to 1
7 | Cc1cccnc1[C@H]1CC(C(=O)OC[C@@H]2CC[C@@H](Nc3ncnc4[nH]cc(C(=O)c5ccc(Oc6ccccc6)cc5Cl)c34)CO2)C[C@@H](c2ncccc2C)N1CCCCN (stereo partly drawn) [Compound I-22] | 0.1 to 1 | 0.001 to 0.1 | 0.001 to 0.1
8 | Cc1cc(-c2ncnc3[nH]c(C(=O)NCCCCN4[C@@H](c5ncccc5C)CCC[C@H]4c4ncccc4C)cc23)ccc1CNC(=O)c1ccc(C(F)(F)F)cc1 [Compound I-46] | 0.1 to 1 | 0.001 to 0.1 | 0.001 to 0.1
9 | Cc1cccnc1[C@H]1CCC[C@@H](c2ncccc2C)N1CCNC1CN(C(=O)c2ccc(-c3cc4c(-c5cccc(NC(=O)c6ccc(C(F)(F)F)cc6)c5C)ncnc4[nH]3)cc2)C1 [Compound I-37] | 0.001 to 0.1 | 0.001 to 0.1 | 0.1 to 1
10 | Cc1cc(-c2ncnc3[nH]c(C(=O)NCCCCN4[C@@H](c5ncccc5C)CCC[C@H]4c4ncccc4C)cc23)ccc1CNC(=O)c1cccc(C(C)C)c1 [Compound I-45] | 1 to 2.5 | 0.001 to 0.1 | 0.001 to 0.1
11 | Cc1cc(-c2ccnc(Nc3cnn(CCN4[C@@H](c5ncccc5C)CCC[C@H]4c4ncccc4C)c3)n2)ccc1CNC(=O)N1CC(OC(F)(F)F)C1 [Compound I-43] | 0.1 to 1 | 0.001 to 0.1 | 0.001 to 0.1
12 | Cc1cc(-c2ncnc3[nH]c(C(=O)NCCCN4[C@@H](c5ncccc5C)CCC[C@H]4c4ncccc4C)cc23)ccc1CNC(=O)c1ccc(C(C)C)cc1 [Compound I-38] | 0.1 to 1 | 0.001 to 0.1 | 0.001 to 0.1
13 | Cc1cccnc1[C@H]1CC(Cn2cc(-c3ccc(Oc4ccccc4)cc3)c3c(N)ncnc32)C[C@@H](c2ncccc2C)N1CCCCN (stereo partly drawn) [Compound I-61] | > 2.5 | > 2.5 | > 2.5
14 | Cc1cccnc1[C@H]1CC(COC(=O)[C@@H]2CC[C@@H](Nc3ncnc4[nH]cc(C(=O)c5ccc(Oc6ccccc6)cc5Cl)c34)CO2)C[C@@H](c2ncccc2C)N1CCCCN (stereo partly drawn) [Compound I-21] | 0.1 to 1 | 0.001 to 0.1 | 0.001 to 0.1
15 | Cc1cccnc1[C@H]1CCC[C@@H](c2ncccc2C)N1CCNC1CN(C(=O)c2ccc(-c3cc4c(-c5cccc(NC(=O)c6ccc(C(C)C)cc6)c5C)ncnc4[nH]3)cc2)C1 [Compound I-35] | 0.001 to 0.1 | 0.001 to 0.1 | 0.001 to 0.1
16 | Cc1cccnc1[C@H]1CCC[C@@H](c2ncccc2C)N1CCn1cc(-c2ccc(Oc3ccccc3)cc2)c2c(N)ncnc21 [Compound I-63] | > 2.5 | 1 to 2.5 | > 2.5
17 | Cc1cc(-c2ncnc3[nH]c(S(=O)(=O)NCCN4[C@@H](c5ncccc5C)CCC[C@H]4c4ncccc4C)cc23)ccc1CNC(=O)c1ccc(C(C)(C)C)cc1 [Compound I-26] | > 2.5 | > 2.5 | 1 to 2.5
18 | COC1CN(C(=O)NCc2ccc(-c3ccnc(Nc4cnn(CCN5[C@@H](c6ncccc6C)CCC[C@H]5c5ncccc5C)c4)n3)cc2C)C1 [Compound I-41] | > 2.5 | 0.001 to 0.1 | 0.001 to 0.1
19 | Cc1cccnc1[C@H]1CCC[C@@H](c2ncccc2C)N1CCNC1CN(C(=O)c2ccc(-c3cc4c(-c5cccc(NC(=O)c6cccc(C(C)C)c6)c5C)ncnc4[nH]3)cc2)C1 [Compound I-36] | 0.1 to 1 | 0.001 to 0.1 | 1 to 2.5
20 | Cc1cccnc1[C@H]1CCC[C@@H](c2ncccc2C)N1CCN1CCN(C(=O)c2ccc(-c3cc4c(-c5cccc(NC(=O)c6ccc(C(C)C)cc6)c5C)ncnc4[nH]3)cc2)CC1 [Compound I-32] | > 2.5 | 0.001 to 0.1 | 0.001 to 0.1
21 | Cc1cccnc1[C@H]1CCC[C@@H](c2ncccc2C)N1CCCCN1CCN(C(=O)c2ccc(-c3cc4c(-c5cccc(NC(=O)c6ccccc6)c5C)ncnc4[nH]3)cc2)CC1 [Compound I-31] | 0.001 to 0.1 | 0.001 to 0.1 | 0.1 to 1
22 | Cc1cccnc1[C@H]1CCC[C@@H](c2ncccc2C)N1CCCn1cc(-c2ccc(Oc3ccccc3)cc2)c2c(N)ncnc21 [Compound I-64] | > 2.5 | > 2.5 | > 2.5
23 | Cc1cc(-c2ncnc3[nH]c(S(=O)(=O)NCCCCN4[C@@H](c5ncccc5C)CCC[C@H]4c4ncccc4C)cc23)ccc1CNC(=O)c1ccc(C(C)(C)C)cc1 [Compound I-28] | > 2.5 | 0.1 to 1 | 1 to 2.5
24 | Cc1cccnc1[C@H]1CCC[C@@H](c2ncccc2C)N1CCN1CCN(C(=O)c2ccc(-c3cc4c(-c5cccc(NC(=O)c6cccc(C(C)C)c6)c5C)ncnc4[nH]3)cc2)CC1 [Compound I-33] | 0.1 to 1 | 0.001 to 0.1 | 0.1 to 1
25 | Cc1cc(-c2ncnc3[nH]c(C(=O)NCCCN4[C@@H](c5ncccc5C)CCC[C@H]4c4ncccc4C)cc23)ccc1CNC(=O)c1cccc(C(C)C)c1 [Compound I-39] | > 2.5 | 0.001 to 0.1 | 0.1 to 1
26 | Cc1cc(-c2ncnc3[nH]c(C(=O)NCCCCN4[C@@H](c5ncccc5C)CCC[C@H]4c4ncccc4C)cc23)ccc1CNC(=O)c1ccc(C(C)C)cc1 [Compound I-44] | 0.1 to 1 | 0.001 to 0.1 | 0.001 to 0.1
27 | Cc1cccnc1[C@H]1CCC[C@@H](c2ncccc2C)N1CCN1CCN(C(=O)c2ccc(-c3cc4c(-c5cccc(NC(=O)c6ccc(C(F)(F)F)cc6)c5C)ncnc4[nH]3)cc2)CC1 [Compound I-34] | 0.1 to 1 | 0.001 to 0.1 | 0.1 to 1
